Test results taken from ChEMBL document CHEMBL2331143, “Antiparkinsonian activity of some 9-N-, O-, S- and C-derivatives of 3-methyl-6-(prop-1-en-2-yl)cyclohex-3-ene-1,2-diol” (2013).

Key:
Format in all cases: functional
[1] = test system: Mus musculus; test: Antiparkinsonian activity in MPTP C57Bl/6 mouse model assessed as immobility time at 20 mg/kg, po administered 24 hrs loast last dose of MPTP measured after 2 hrs post compound dose by open field test relative to saline-treated control
[2] = test system: Mus musculus; test: Antiparkinsonian activity in MPTP C57Bl/6 mouse model assessed as movement speed at 20 mg/kg, po administered 24 hrs loast last dose of MPTP measured after 2 hrs post compound dose by open field test relative to saline-treated control
[3] = test system: Mus musculus; test: Antiparkinsonian activity in MPTP C57Bl/6 mouse model assessed as movement distance at 20 mg/kg, po administered 24 hrs loast last dose of MPTP measured after 2 hrs post compound dose by open field test relative to saline-treated control
[4] = test system: Mus musculus; test: Antiparkinsonian activity in MPTP C57Bl/6 mouse model assessed as time of locomotor activity at 20 mg/kg, po administered 24 hrs loast last dose of MPTP measured after 2 hrs post compound dose by open field test relative to saline-treated control

Question: What does the source list for C=C(CO)[C@@H]1CC=C(C)[C@@H](O)[C@@H]1O?
Answer: Time [1]: 80 s; Activity [2]: 1.5 cm/s; Activity [3]: 182.1 cm; Time [4]: 37.2 s

Question: Which results are given for C=C(CN1C(=O)c2ccccc2C1=O)[C@@H]1CC=C(C)[C@@H](O)[C@@H]1O?
Answer: Time [1]: 61.7 s; Activity [2]: 2.3 cm/s; Activity [3]: 280 cm; Time [4]: 58.3 s

Question: Which results are given for C=C(CNCCN(C)C)[C@@H]1CC=C(C)[C@@H](O)[C@@H]1O?
Answer: Time [1]: 68.8 s; Activity [2]: 1.8 cm/s; Activity [3]: 225 cm; Time [4]: 51.2 s

Question: With C=C(CSCCC)[C@@H]1CC=C(C)[C@@H](O)[C@@H]1O as the compound, how does the Time [1] read?
Answer: 58.6 s

Question: And the Activity [2]?
Answer: 2.6 cm/s

Question: And the Activity [3]?
Answer: 317.6 cm

Question: And the Time [4]?
Answer: 61.4 s

Question: With C=C(CN1CCOCC1)[C@@H]1CC=C(C)[C@@H](O)[C@@H]1O as the compound, how does the Time [1] read?
Answer: 71.5 s

Question: What about the Activity [2] of the same compound?
Answer: 1.7 cm/s

Question: What about the Activity [3] of the same compound?
Answer: 215.3 cm

Question: What about the Time [4] of the same compound?
Answer: 48.5 s

Question: C=C1CO[C@H]2[C@H](O)C(C)=CC[C@@H]12 was tested. Which Time [1] did it give?
Answer: 73.4 s

Question: What about the Activity [2] of the same compound?
Answer: 1.7 cm/s

Question: What about the Activity [3] of the same compound?
Answer: 214 cm

Question: What about the Time [4] of the same compound?
Answer: 46.6 s

Question: Which Time [1] does the source give for C=C(C)[C@@H]1CC=C(C)[C@@H](O)[C@@H]1O here?
Answer: 50.8 s

Question: What about the Activity [2] of the same compound?
Answer: 2.6 cm/s

Question: And the Activity [3]?
Answer: 302 cm

Question: And the Time [4]?
Answer: 69.2 s

Question: For C=C(CCCCC)[C@@H]1CC=C(C)[C@@H](O)[C@@H]1O, which Time [1] is on record?
Answer: 56.8 s

Question: What about the Activity [2] of the same compound?
Answer: 2.7 cm/s

Question: What about the Activity [3] of the same compound?
Answer: 335.2 cm

Question: And the Time [4]?
Answer: 63.2 s

Question: Which results are given for C=C(CN)[C@@H]1CC=C(C)[C@@H](O)[C@@H]1O?
Answer: Time [1]: 66.5 s; Activity [2]: 2 cm/s; Activity [3]: 248.6 cm; Time [4]: 53.5 s

Question: Which Time [1] does the source give for C=C(CNC1C2CC3CC(C2)CC1C3)[C@@H]1CC=C(C)[C@@H](O)[C@@H]1O (stereo not given in full) here?
Answer: 85.2 s

Question: And the Activity [2]?
Answer: 1.2 cm/s

Question: What about the Activity [3] of the same compound?
Answer: 149.7 cm

Question: What about the Time [4] of the same compound?
Answer: 34.8 s
